Measured values reported in patent US20260048047A1, “SMALL-MOLECULE ACTIVATORS OF MYCOBACTERIUM TUBERCULOSIS ADENYLYL CYCLASE” (priority 2022, published 2026).

Assays:
M. tuberculosis = experiment: Extracellular activity against M. tuberculosis in cholesterol media (Alamar Blue reduction assay); type: cell-based, Mycobacterium tuberculosis
Rv1625c = type: cell-based, Mycobacterium tuberculosis

Compound | Inhibition of ΔRv1625c strain in cholesterol media (M. tuberculosis) | Fold greater susceptibility of rv1625c overexpression strain (2×rv1625c) than WT (M. tuberculosis; 2×rv1625c vs WT, 7H12+cholesterol) [fold] | cAMP induction in ΔRv1625c mutant (Rv1625c)
Cc1nonc1CC(=O)N1CCC(n2nnc(-c3ccc(F)cc3)n2)CC1 [Compound V-59, 1-(4-(5-(4-fluorophenyl)-2H-tetrazol-2-yl)piperidin-1-yl)-2-(4-methyl-1,2,5-oxadiazol-3-yl)ethan-1-one] | refractory | ~15 | did not affect
Cn1ncnc1CC(=O)N1CCC(c2nc(-c3ccc(Cl)c(Cl)c3)no2)CC1 [mCLB073, 1-(4-(3-(3,4-dichlorophenyl)-1,2,4-oxadiazol-5-yl)-1-piperidinyl)-2-(2-methyl-2H-1,2,4-triazol-3-yl)-1-ethanone] | refractory |  | 
